Data on two sequences can be found in patent publication US7976843B2, “Method for screening peptides for use in immunotherapy” (Institut National de la Santa et de la Recherche Medicale …, priority 2000, dated 2011).

This experiment deals with RMA-HHD cells infected with vac-HIVgag, vac-neu, vac-gp100 or flu PR8. The arrangement: species or system HHD mice. Conditions: mouse, in vivo.

As for PLTSIISAV [HER-2/neu 650], the “killing of RMA-HHD cells infected with virus expressing the antigen vs vac-WT” value was “kill target cells infected with vac-neu, but not targets infected with vac-WT”. Take ILLVVVLGV [HER-2/neu 661]: the “killing of RMA-HHD cells infected with virus expressing the antigen vs vac-WT” value was “exception”.
